From US20070128217A1 (priority 2003, published 2007) come the findings set out here.

Assay [1] relates to antibodies in sera from SARS patients (sera 1a, 1b, 2, 6, 37, 62, London, SARS-yellow, SARS-green). It counts as binding, human. Details: Binding of serum 6 to linear peptides of protein X1 of SARS-CoV Urbani / Binding of serum 37 to linear peptides of protein X1 of SARS-CoV Urbani / Binding of serum 6 to looped/cyclic peptide (PEPSCAN-ELISA) / Binding of serum 37 to looped/cyclic peptide (PEPSCAN-ELISA) / Binding of serum 37 to looped/cyclic peptides of protein X1 of SARS-CoV Urbani / Binding of serum 6 to linear peptides of protein X2 / Binding of serum 37 to linear peptides of protein X2 / Binding of serum 37 to looped/cyclic peptides of protein X2 of SARS-CoV Urbani / Binding of serum 6 to linear peptides of protein M of SARS-CoV Urbani / Binding of serum 37 to linear peptides of protein M of SARS-CoV Urbani / Binding of serum 6 to looped/cyclic peptides of protein M of SARS-CoV Urbani / Binding of serum 37 to looped/cyclic peptides of protein M of SARS-CoV Urbani / Binding of serum 6 to linear peptides of protein X3 of SARS-CoV Urbani / Binding of serum 37 to linear peptides of protein X3 of SARS-CoV Urbani / Binding of serum 37 to looped/cyclic peptides of protein X3 of SARS-CoV Urbani / Binding of serum 6 to linear peptides of protein X4 of SARS-CoV Urbani / Binding of serum 37 to linear peptides of protein X4 of SARS-CoV Urbani / Binding of serum 37 to looped/cyclic peptides of protein X4 of SARS-CoV Urbani / Binding of serum 6 to linear peptides of protein X5 of SARS-CoV Urbani / Binding of serum 37 to linear peptides of protein X5 of SARS-CoV Urbani / Binding of serum 37 to looped/cyclic peptides of protein X5 of SARS-CoV Urbani / Binding of serum 6 to linear peptides of protein N of SARS-CoV Urbani / Binding of serum 37 to linear peptides of protein N of SARS-CoV Urbani / Binding of serum 6 to linear peptide (PEPSCAN-ELISA) / Binding of serum 1a to looped/cyclic peptides of protein N of SARS-CoV Urbani / Binding of serum 1b to looped/cyclic peptides of protein N of SARS-CoV Urbani / Binding of serum 2 to looped/cyclic peptides of protein N of SARS-CoV Urbani / Binding of serum 6 to looped/cyclic peptides of protein N of SARS-CoV Urbani / Binding of serum 37 to looped/cyclic peptides of protein N of SARS-CoV Urbani / Binding of serum 62 to looped/cyclic peptides of protein N of SARS-CoV Urbani / Binding of serum London to looped/cyclic peptides of protein N of SARS-CoV Urbani / Binding of serum SARS-green to looped/cyclic peptides of protein N of SARS-CoV Urbani: unit not given here.

Assay [2] has as its system control sera (pooled serum of ten healthy LUMC hospital workers; commercial negative donor pooled serum from the Dutch bloodbank). It counts as binding, human. Details: Binding of Control serum LUMC to linear peptides / Binding of Control serum Blood-bank to linear peptides / Binding of Control serum LUMC to looped peptides / Binding of Control Serum Blood-Bank to Looped peptides / Binding of Control serum LUMC to linear peptides of the protein M of SARS-CoV Urbani / Binding of Control serum Blood-bank to linear peptides of the protein M of SARS-CoV Urbani / Binding of Control serum LUMC to looped peptides of the protein M of SARS-CoV Urbani / Binding of Control Serum Blood-Bank to Looped peptides of the protein M of SARS-CoV Urbani: unit not given here.

The test system of assay [3] is rabbit serum obtained by immunizing a rabbit with the SARS-CoV strain Frankfurt 1. It is filed as binding. More on the design: Binding of a rabbit serum to linear peptides / Binding of a rabbit serum to looped peptides / Rabbit serum linear peptides / Rabbit serum looped peptides / Binding of a rabbit serum to linear peptides of protein N of SARS-CoV Urbani (Rabbit serum linear peptides) / Binding of a rabbit serum to looped/cyclic peptides of protein N of SARS-CoV Urbani (Rabbit serum looped peptides): unit not given here.

Regarding RTRSMWSFNPETNIL, in assay [1], the “Binding of serum 1a to linear peptides of protein M of SARS-CoV Urbani” value came out at 0.9, the “Binding of serum 1a to looped/cyclic peptides of protein M of SARS-CoV Urbani” value is listed as 0.7, the “Binding of serum 1b to linear peptides of protein M of SARS-CoV Urbani” value is recorded as 0.8 and the “Binding of serum 1b to looped/cyclic peptides of protein M of SARS-CoV Urbani” value is 0.3. In addition, in assay [1], the “Binding of serum 2 to linear peptides of protein M of SARS-CoV Urbani” value is recorded as 0.8, the “Binding of serum 2 to looped/cyclic peptides of protein M of SARS-CoV Urbani” value is 0.8, the “Binding of serum 6 to linear peptides of protein M of SARS-CoV Urbani” value was 0.4 and the “Binding of serum 6 to looped/cyclic peptides of protein M of SARS-CoV Urbani” value was 0.7. In assay [1], the “Binding of serum 37 to linear peptides of protein M of SARS-CoV Urbani” value was found to be 0.9, the “Binding of serum 37 to looped/cyclic peptides of protein M of SARS-CoV Urbani” value is on record as 0.9, the “Binding of serum 62 to linear peptides of protein M of SARS-CoV Urbani” value is on record as 0.9 and the “Binding of serum 62 to looped/cyclic peptides of protein M of SARS-CoV Urbani” value is given as 0.9. In assay [1], the “Binding of serum London to linear peptides of protein M of SARS-CoV Urbani” value was found to be 0.3, the “Binding of serum London to looped/cyclic peptides of protein M of SARS-CoV Urbani” value worked out at 0.2, the “Binding of serum SARS-green to linear peptides of protein M of SARS-CoV Urbani” value is 0.3 and the “Binding of serum SARS-green to looped/cyclic peptides of protein M of SARS-CoV Urbani” value is listed as 0.0. For the same sequence, in assay [1], the “Binding of serum SARS-yellow to linear peptides of protein M of SARS-CoV Urbani” value was 0.1 and the “Binding of serum SARS-yellow to looped/cyclic peptides of protein M of SARS-CoV Urbani” value stood at 0.7. Also, in assay [2], the “Binding of Control Serum Blood-Bank to Looped peptides of the protein M of SARS-CoV Urbani” value is reported as 0.7, the “Binding of Control serum Blood-bank to linear peptides of the protein M of SARS-CoV Urbani” value is given as 0.9, the “Binding of Control serum LUMC to linear peptides of the protein M of SARS-CoV Urbani” value is 0.7 and the “Binding of Control serum LUMC to looped peptides of the protein M of SARS-CoV Urbani” value is given as 0.7. Also, in assay [3], the “Rabbit serum linear peptides” value was 0.6 and the “Rabbit serum looped peptides” value was determined as 0.4.

For RVGTDSGFAAYNRYR, in assay [1], the “Binding of serum 1a to linear peptides of protein M of SARS-CoV Urbani” value was 0.7, the “Binding of serum 1a to looped/cyclic peptides of protein M of SARS-CoV Urbani” value is on record as 0.8, the “Binding of serum 1b to linear peptides of protein M of SARS-CoV Urbani” value was determined as 0.1 and the “Binding of serum 1b to looped/cyclic peptides of protein M of SARS-CoV Urbani” value came to 0.5. Moreover, in assay [1], the “Binding of serum 2 to linear peptides of protein M of SARS-CoV Urbani” value worked out at 0.5, the “Binding of serum 2 to looped/cyclic peptides of protein M of SARS-CoV Urbani” value stood at 0.6, the “Binding of serum 6 to linear peptides of protein M of SARS-CoV Urbani” value is given as 0.5 and the “Binding of serum 6 to looped/cyclic peptides of protein M of SARS-CoV Urbani” value was 1.4. Also, in assay [1], the “Binding of serum 37 to linear peptides of protein M of SARS-CoV Urbani” value turned out to be 0.6, the “Binding of serum 37 to looped/cyclic peptides of protein M of SARS-CoV Urbani” value stood at 0.7, the “Binding of serum 62 to linear peptides of protein M of SARS-CoV Urbani” value is recorded as 0.2 and the “Binding of serum 62 to looped/cyclic peptides of protein M of SARS-CoV Urbani” value amounted to 0.6. In assay [1], the “Binding of serum London to linear peptides of protein M of SARS-CoV Urbani” value is listed as 0.3, the “Binding of serum London to looped/cyclic peptides of protein M of SARS-CoV Urbani” value worked out at 0.4, the “Binding of serum SARS-green to linear peptides of protein M of SARS-CoV Urbani” value was determined as 0.5 and the “Binding of serum SARS-green to looped/cyclic peptides of protein M of SARS-CoV Urbani” value worked out at 0.3. For the same sequence, in assay [1], the “Binding of serum SARS-yellow to linear peptides of protein M of SARS-CoV Urbani” value came out at 0.3 and the “Binding of serum SARS-yellow to looped/cyclic peptides of protein M of SARS-CoV Urbani” value is given as 0.5. Moreover, in assay [2], the “Binding of Control Serum Blood-Bank to Looped peptides of the protein M of SARS-CoV Urbani” value is recorded as 0.5, the “Binding of Control serum Blood-bank to linear peptides of the protein M of SARS-CoV Urbani” value is 0.7, the “Binding of Control serum LUMC to linear peptides of the protein M of SARS-CoV Urbani” value was found to be 0.4 and the “Binding of Control serum LUMC to looped peptides of the protein M of SARS-CoV Urbani” value is 0.6. Besides, in assay [3], the “Rabbit serum linear peptides” value is listed as 0.0 and the “Rabbit serum looped peptides” value was found to be 0.3.

Consider RWQLALYKGFQFICN, for which, in assay [1], the “Binding of serum 1a to linear peptides of protein X1 of SARS-CoV Urbani” value came to 0.7, the “Binding of serum 1a to looped/cyclic peptide (PEPSCAN-ELISA)” value is on record as 0.6, the “Binding of serum 1b to linear peptides of protein X1 of SARS-CoV Urbani” value was 0.5 and the “Binding of serum 1b to looped/cyclic peptide (PEPSCAN-ELISA)” value amounted to 0.4. In assay [1], the “Binding of serum 2 to linear peptides of protein X1 of SARS-CoV Urbani” value came out at 0.5, the “Binding of serum 2 to looped/cyclic peptide (PEPSCAN-ELISA)” value worked out at 0.5, the “Binding of serum 6 to linear peptides of protein X1 of SARS-CoV Urbani” value stood at 0.4 and the “Binding of serum 6 to looped/cyclic peptide (PEPSCAN-ELISA)” value turned out to be 0.9. In assay [1], the “Binding of serum 37 to linear peptides of protein X1 of SARS-CoV Urbani” value turned out to be 0.6, the “Binding of serum 37 to looped/cyclic peptide (PEPSCAN-ELISA)” value is 0.6, the “Binding of serum 62 to linear peptides of protein X1 of SARS-CoV Urbani” value is reported as 0.5 and the “Binding of serum 62 to looped/cyclic peptide (PEPSCAN-ELISA)” value came to 0.6. In addition, in assay [1], the “Binding of serum London to linear peptides of protein X1 of SARS-CoV Urbani” value came out at 0.3, the “Binding of serum London to looped/cyclic peptide (PEPSCAN-ELISA)” value was 1.4, the “Binding of serum SARS-green to linear peptides of protein X1 of SARS-CoV Urbani” value turned out to be 0.3 and the “Binding of serum SARS-green to looped/cyclic peptide (PEPSCAN-ELISA)” value amounted to 0.3. Besides, in assay [1], the “Binding of serum SARS-yellow to linear peptides of protein X1 of SARS-CoV Urbani” value was found to be 0.2 and the “Binding of serum SARS-yellow to looped/cyclic peptide (PEPSCAN-ELISA)” value came to 0.6. In addition, in assay [2], the “Binding of Control Serum Blood-Bank to Looped peptides” value came to 0.6, the “Binding of Control serum Blood-bank to linear peptides” value came to 0.6, the “Binding of Control serum LUMC to linear peptides” value is 0.4 and the “Binding of Control serum LUMC to looped peptides” value is listed as 0.6. Further, in assay [3], the “Binding of a rabbit serum to linear peptides” value was 0.3 and the “Binding of a rabbit serum to looped peptides” value is 0.9.

Turning to RYNTRGNTYSTAWLC, in assay [1], the “Binding of serum 1a to linear peptides of protein X5 of SARS-CoV Urbani” value is given as 0.8, the “Binding of serum 1a to looped/cyclic peptides of protein X5 of SARS-CoV Urbani” value is reported as 0.5, the “Binding of serum 1b to linear peptides of protein X5 of SARS-CoV Urbani” value turned out to be 0.4 and the “Binding of serum 1b to looped/cyclic peptides of protein X5 of SARS-CoV Urbani” value amounted to 0.0. In assay [1], the “Binding of serum 2 to linear peptides of protein X5 of SARS-CoV Urbani” value is given as 0.5, the “Binding of serum 2 to looped/cyclic peptides of protein X5 of SARS-CoV Urbani” value is 0.3, the “Binding of serum 6 to linear peptides of protein X5 of SARS-CoV Urbani” value is on record as 0.9 and the “Binding of serum 6 to looped/cyclic peptides of protein X5 of SARS-CoV Urbani” value is listed as 0.1. In assay [1], the “Binding of serum 37 to linear peptides of protein X5 of SARS-CoV Urbani” value was 0.4, the “Binding of serum 37 to looped/cyclic peptides of protein X5 of SARS-CoV Urbani” value was found to be 0.0, the “Binding of serum 62 to linear peptides of protein X5 of SARS-CoV Urbani” value worked out at 0.7 and the “Binding of serum 62 to looped/cyclic peptides of protein X5 of SARS-CoV Urbani” value worked out at 0.2. For the same sequence, in assay [1], the “Binding of serum London to linear peptides of protein X5 of SARS-CoV Urbani” value was found to be 1.0, the “Binding of serum London to looped/cyclic peptides of protein X5 of SARS-CoV Urbani” value is recorded as 0.2, the “Binding of serum SARS-green to linear peptides of protein X5 of SARS-CoV Urbani” value stood at 0.6 and the “Binding of serum SARS-green to looped/cyclic peptides of protein X5 of SARS-CoV Urbani” value is listed as 0.1. Moreover, in assay [1], the “Binding of serum SARS-yellow to linear peptides of protein X5 of SARS-CoV Urbani” value was 0.2 and the “Binding of serum SARS-yellow to looped/cyclic peptides of protein X5 of SARS-CoV Urbani” value stood at 0.6. In assay [2], the “Binding of Control Serum Blood-Bank to Looped peptides” value stood at 0.0, the “Binding of Control serum Blood-bank to linear peptides” value is 0.7, the “Binding of Control serum LUMC to linear peptides” value is 0.3 and the “Binding of Control serum LUMC to looped peptides” value amounted to 0.1. For the same sequence, in assay [3], the “Rabbit serum linear peptides” value turned out to be 0.7 and the “Rabbit serum looped peptides” value came out at 0.0.
